In US8912179B2, “Heterocyclyl compounds as histamine H3 receptor ligands” (Suven Life Sciences Limited, priority 2010, dated 2014):
Counter-ions that a name gives are not always drawn.

Assays:
[1] = target: Histamine H3 receptor (UniProt Q9Y5N1); test: Binding assay for human or rat histamine H3 receptor ([3H] R-α-methylhistamine); settings: [3H] R-α-methylhistamine 3.0 nM; rat brain frontal cortex or recombinant human receptor in CHO cells (not specified which)
Experimental: Compounds can be evaluated according to the following procedures.
• Receptor source: Rat brain frontal cortex or recombinant human cDNA expressed in CHO cells • Radioligand: [^3H] R-α-methylhistamine • Final ligand concentration—[3.0 nM] • Non-specific determinant: R-α-methylhistamine (100 uM) • Reference compound: R-α-methylhistamine • Positive control: R-α-methylhistamine Incubation Conditions:
Increasing concentrations of test compounds or standard were incubated with membrane receptors and radioligand in 5 mM MgCl2 and 50 mM TRIS-HCl (pH 7.4) for 60 minutes at room temperature. The reaction was terminated by rapid vacuum filtration onto the glass fiber filters. Radioactivity trapped onto the filters was determined and compared to the control values in order to ascertain any interactions of the test compound(s) with either cloned human or rat receptor binding site.

[2] = Rodent pharmacokinetic study; type: in vivo, Male Wistar rats; settings: whole blood, Wistar male rat; for AUC(0-t) / Cmax / Tmax / half-life: water, blood
Experimental: Male Wistar rats (230-280 grams) obtained from NIN (National Institute of Nutrition, Hyderabad, India) were used as an experimental animal. Three animals were housed in each cage. Animals were kept fasted over night and maintained on a 12 hours light/dark cycle. Three rats were dosed New chemical entity (NCE) orally (3 or 10 mg/kg) and intravenously (1 or 5 mg/kg) on day 0 and day 2.
At each time point blood was collected by jugular vein. Blood was stored at 2-8° C. until analysis. The concentrations of the NCE compound in blood were determined using LC-MS/MS method. Schedule time points: Pre dose 0.08, 0.25, 0.5, 1, 2, 4, 6, 8 and 24 hours after dosing (n=3). The NCE compounds were quantified in blood by partially validated LC-MS/MS method using acetonitrile precipitation technique. NCE compounds were quantified in the calibration range of 1-2000 ng/mL in blood. Study samples were analyzed using calibration samples in the batch and quality control samples spread across the batch.
Pharmacokinetic parameters were calculated by non-compartmental model using software WinNonlin version 5.0.1.

[3] = system: rats; test: Morris water maze, reversal of scopolamine induced amnesia; type: in vivo, rat; settings: p.o., dose giving reversal
Experimental: The cognition-enhancing properties of compounds of this invention were estimated by using this model.
The water maze apparatus consisted of a circular pool (1.8 m diameter, 0.6 m high) constructed in black Perspex (TSE systems, Germany) filled with water (24±2° C.) and positioned underneath a wide-angled video camera to track animal. The 10 cm^2 perspex platform, lying 1 cm below the water surface, was placed in the centre of one of the four imaginary quadrants, which remained constant for all rats. The black Perspex used in the construction of the maze and platform offered no intramaze cues to guide escape behavior. By contrast, the training room offered several strong extramaze visual cues to aid the formation of the spatial map necessary for escape learning. An automated tracking system, [Videomot 2 (5.51), TSE systems, Germany] was employed. This program analyzes video images acquired via a digital camera and an image acquisition boards that determined path length, swim speed and the number of entries and duration of swim time spent in each quadrant of the water maze.

## O=C(C1CC1)N1CCc2nc(OC3CCC(C4CCC4)CC3)sc2CC1 (stereo not drawn) [Example 2, [2-(4-Cyclobutyl-cyclohexyloxy)-4,5,7,8-tetrahydro-thiazolo[5,4-d]azepin-6-yl]-cyclopropyl-methanone tartrate]
[1]
  Ki: 2 nM

## CCC(=O)NC1CCc2nc(OC3CCN(C4CCC4)CC3)sc2C1 (stereo not drawn) [Example 3, N-[2-(1-Cyclobutyl-piperidin-4-yloxy)-4,5,6,7-tetrahydro-benzothiazol-6-yl]-propionamide]
[1]
  Ki: 26.7 nM

## O=C(c1ccccc1F)N1CCc2nc(OC3CCN(C4CCC4)CC3)sc2C1 [Example 6, [2-(1-Cyclobutyl-piperidin-4-yloxy)-6,7-dihydro-4H-thiazolo[5,4-c]pyridin-5-yl]-(2-fluoro-phenyl)-methanone tartrate]
[1]
  Ki: 13.4 nM

## CC(C)CC(=O)N1CCc2nc(OC3CCN(C4CCC4)CC3)sc2C1 [Example 7, 1-[2-(1-Cyclobutyl-piperidin-4-yloxy)-6,7-dihydro-4H-thiazolo[5,4-c]pyridin-5-yl]-3-methyl-butan-1-one tartrate]
[1]
  Ki: 10.5 nM

## CC(C)N1CCC(Oc2nc3c(s2)CN(C(=O)C2CCC2)CC3)CC1 [Example 8, Cyclobutyl-[2-(1-isopropyl-piperidin-4-yloxy)-6,7-dihydro-4H-thiazolo[5,4-c]pyridin-5-yl]-methanone]
[1]
  Ki: 7.69 nM

## CC(C)N1CCC(Oc2nc3c(s2)CN(C(=O)C2CC2)CC3)CC1 [Example 9, Cyclopropyl-[2-(1-isopropyl-piperidin-4-yloxy)-6,7-dihydro-4H-thiazolo[5,4-c]pyridin-5-yl]-methanone tartrate]
[1]
  Ki: 9.94 nM

## O=C(C1CC1)N1CCc2nc(OC3CCN(C4CC4)CC3)sc2C1 [Example 10, Cyclopropyl-[2-(1-cyclopropyl-piperidin-4-yloxy)-6,7-dihydro-4H-thiazolo[5,4-c]pyridin-5-yl]-methanone tartrate]
[1]
  Ki: 5.43 nM

## O=C(C1CCC1)N1CCc2nc(OC3CCN(C4CC4)CC3)sc2C1 [Example 11, Cyclobutyl-[2-(1-cyclopropyl-piperidin-4-yloxy)-6,7-dihydro-4H-thiazolo[5,4-c]pyridin-5-yl]-methanone tartrate]
[1]
  Ki: 12 nM

## O=C(CN1CCOCC1)N1CCc2nc(OC3CCN(C4CCC4)CC3)sc2C1.O=C(O)C(O)C(O)C(=O)O [Example 12, 1-[2-(1-Cyclobutyl-piperidin-4-yloxy)-6,7-dihydro-4H-thiazolo[5,4-c]pyridin-5-yl]-2-morpholin-4-yl-ethanone tartrate]
[1]
  Ki: 8.44 nM
[2]; intravenous, 1 mg/kg
  AUC(0-t): 334 ± 39 ng·h/mL
  Cmax: 237 ± 38 ng/mL
  Tmax: 4.8 min
  half-life: 172 ± 49.2 min
[2]; per oral 3 mg/kg vs intravenous 1 mg/kg
  bioavailability: 43 ± 17%
[2]; per oral, 3 mg/kg
  AUC(0-t): 417 ± 120 ng·h/mL
  Cmax: 151 ± 18 ng/mL
  Tmax: 49.8 ± 17.4 min
  half-life: 171 ± 22.8 min
[3]
  Reversal of Scopolamine Induced amnesia: ≧20 mg/kg, p.o.

## O=C(C1CC1)N1CCCC(Oc2nc3c(s2)CN(C2CCC2)CC3)C1 (stereo not drawn) [Example 14, [3-(5-Cyclobutyl-,6,7-dihydro-4H-thiazolo[5,4-c]pyridin-2-yloxy)-piperidin-1-yl]-cyclopropyl-methanone tartrate]
[1]
  Ki: 23.6 nM

## O=C(c1ccncc1)N1CCc2nc(OC3CCN(C4CCC4)CC3)sc2C1 [Example 16, [2-(1-Cyclobutyl-piperidin-4-yloxy)-6,7-dihydro-4H-thiazolo[5,4-c]pyridin-5-yl]-pyridin-4-yl-methanone tartrate]
[1]
  Ki: 33.5 nM

## COc1ccc(C(=O)N2CCc3nc(OC4CCN(C5CCC5)CC4)sc3C2)cc1 [Example 17, [2-(1-Cyclobutyl-piperidin-4-yloxy)-6,7-dihydro-4H-thiazolo[5,4-c]pyridin-5-yl]-(4-methoxy-phenyl)-methanone tartrate]
[1]
  Ki: 21.2 nM

## O=C(CN1CCCCC1)N1CCc2nc(OC3CCN(C4CCC4)CC3)sc2C1 [Example 18, 1-[2-(1-Cyclobutyl-piperidin-4-yloxy)-6,7-dihydro-4H-thiazolo[5,4-c]pyridin-5-yl]-2-piperidin-1-yl-ethanone tartrate]
[1]
  Ki: 6.96 nM

## O=C(CC1CC1)N1CCc2nc(OC3CCN(C4CCC4)CC3)sc2C1 [Example 19, 1-[2-(1-Cyclobutyl-piperidin-4-yloxy)-6,7-dihydro-4H-thiazolo[5,4-c]pyridin-5-yl]-2-cyclopropyl-ethanone]
[1]
  Ki: 12.3 nM

## O=S(=O)(c1ccccc1F)N1CCc2nc(OC3CCN(C4CCC4)CC3)sc2C1 [Example 20, 2-(1-Cyclobutyl-piperidin-4-yloxy)-5-(2-fluoro-benzenesulfonyl)-,6,7-dihydro-4H-thiazolo[5,4-c]pyridine tartrate]
[1]
  Ki: 7.4 nM

## CS(=O)(=O)N1CCc2nc(OC3CCN(C4CCC4)CC3)sc2C1 [Example 21, 2-(1-Cyclobutyl-piperidin-4-yloxy)-5-methanesulfonyl-,6,7-dihydro-4H-thiazolo[5,4-c]pyridine]
[1]
  Ki: 22.6 nM

## FC(F)(F)c1ccc(N2CCc3nc(OC4CCN(C5CCC5)CC4)sc3C2)cn1 [Example 23, 2-(1-Cyclobutyl-piperidin-4-yloxy)-5-(2-trifluoromethyl-pyridin-5-yl)-,6,7-dihydro-4H-thiazolo[5,4-c]pyridine]
[1]
  Ki: 0.3 nM

## O=C(c1ccc(C(F)(F)F)nc1)N1CCc2nc(OC3CCN(C4CCC4)CC3)sc2C1 [Example 25, [2-(1-Cyclobutyl-piperidin-4-yloxy)-6,7-dihydro-4H-thiazolo[5,4-c]pyridin-5-yl]-(2-trifluoromethyl-pyridin-5-yl)-methanone]
[1]
  Ki: 35.3 nM

## O=C(c1cccnc1)N1CCc2nc(OC3CCN(C4CCC4)CC3)sc2C1 [Example 26, [2-(1-Cyclobutyl-piperidin-4-yloxy)-6,7-dihydro-4H-thiazolo[5,4-c]pyridin-5-yl]-pyridin-3-yl-methanone tartrate]
[1]
  Ki: 32.5 nM

## c1cncc(N2CCc3nc(OC4CCN(C5CCC5)CC4)sc3C2)c1 [Example 27, 2-(1-Cyclobutyl-piperidin-4-yloxy)-5-pyridin-3-yl-,6,7-dihydro-4H-thiazolo[5,4-c]pyridine tartrate]
[1]
  Ki: 0.75 nM

## O=C(N1CCOCC1)N1CCc2nc(OC3CCN(C4CCC4)CC3)sc2C1 [Example 29, [2-(1-Cyclobutyl-piperidin-4-yloxy)-6,7-dihydro-4H-thiazolo[5,4-c]pyridin-5-yl]-morpholin-4-yl-methanone tartrate]
[1]
  Ki: 11.3 nM

## O=C(N1CCCCC1)N1CCc2nc(OC3CCN(C4CCC4)CC3)sc2C1 [Example 30, [2-(1-Cyclobutyl-piperidin-4-yloxy)-6,7-dihydro-4H-thiazolo[5,4-c]pyridin-5-yl]-piperidin-1-yl-methanone hydrochloride]
[1]
  Ki: 4.19 nM

## NC(=O)c1ccc(N2CCc3nc(OC4CCN(C5CCC5)CC4)sc3C2)nc1 [Example 31, 6-[2-(1-Cyclobutyl-piperidin-4-yloxy)-6,7-dihydro-4H-thiazolo[5,4-c]pyridin-5-yl]-nicotinamide]
[1]
  Ki: 1.62 nM

## O=C(C1CCCC1)N1CCc2nc(OC3CCN(C4CCC4)CC3)sc2C1 [Example 32, [2-(1-Cyclobutyl-piperidin-4-yloxy)-6,7-dihydro-4H-thiazolo[5,4-c]pyridin-5-yl]-cyclopentyl-methanone tartrate]
[1]
  Ki: 4.6 nM

## O=C(C1CC1)N1CCCc2nc(OC3CCN(C4CCC4)CC3)sc21 [Example 33, [2-(1-Cyclobutyl-piperidin-4-yloxy)-6,7-dihydro-5H-thiazolo[5,4-b]pyridin-4-yl]-cyclopropyl-methanone tartrate]
[1]
  Ki: 15.4 nM

## CC(C)N1CCC(Oc2nc3c(s2)CCN(C(=O)C2CC2)CC3)CC1 [Example 34, Cyclopropyl-[2-(1-isopropyl-piperidin-4-yloxy)-4,5,7,8-tetrahydro-thiazolo[5,4-d]azepin-6-yl]-methanone tartrate]
[1]
  Ki: 15.6 nM
